Converted amounts (≈) assume the structure as drawn.
What was measured:
Pseudomonas aeruginosa = assay: Antibacterial activity against Pseudomonas aeruginosa by agar dilution method; format: functional
[1] = tested on: Mycobacterium tuberculosis; assay: Antitubercular activity against Mycobacterium tuberculosis infected in IFNgamma-deficient C57BL/6 mouse assessed bacterial load in spleen at 25 mg/kg administered once daily for 8 days measured 28 days post infection; format: functional
[2] = tested on: Mycobacterium tuberculosis; assay: Antitubercular activity against Mycobacterium tuberculosis H37Rv by microplate alamar blue assay; format: functional
Shigella flexneri = assay: Antibacterial activity against Shigella flexneri by agar dilution method; format: functional
Vibrio cholerae = assay: Antibacterial activity against Vibrio cholerae by agar dilution method; format: functional
[3] = tested on: Staphylococcus epidermidis; assay: Antibacterial activity against Staphylococcus epidermidis by agar dilution method; format: functional
Escherichia coli = assay: Antibacterial activity against Escherichia coli by agar dilution method; format: functional
Salmonella typhi = assay: Antibacterial activity against Salmonella typhi by agar dilution method; format: functional, Salmonella enterica subsp. enterica serovar Typhi; details: Salmonella enterica
[4] = tested on: Mycobacterium tuberculosis; assay: Antitubercular activity against Mycobacterium tuberculosis infected in IFNgamma-deficient C57BL/6 mouse assessed bacterial load in lung at 25 mg/kg administered once daily for 8 days measured 28 days post infection; format: functional
Klebsiella pneumoniae = assay: Antibacterial activity against Klebsiella pneumoniae by agar dilution method; format: functional
Citrobacter freundii = assay: Antibacterial activity against Citrobacter freundii by agar dilution method; format: functional
Staphylococcus aureus = assay: Antibacterial activity against Staphylococcus aureus by agar dilution method; format: functional
HeLa = assay: Anticancer activity against human HeLa cells after 48 hrs by MTT assay; format: functional, cell-based
A549 = assay: Anticancer activity against human A549 cells after 48 hrs by MTT assay; format: functional, cell-based; details: A549, 48 h
SW480 = assay: Anticancer activity against human SW480 cells after 48 hrs by MTT assay; format: functional, cell-based; details: SW480, 48 h
HepG2 = assay: Anticancer activity against human HepG2 cells after 48 hrs by MTT assay; format: functional, cell-based; details: HepG2, 48 h
[5] = tested on: Mycobacterium tuberculosis; assay: Potency index, ratio of rifampicin MIC to test compound MIC for Mycobacterium tuberculosis H37Rv; format: functional
[6] = tested on: Mycobacterium tuberculosis; assay: Antimycobacterial activity against Mycobacterium tuberculosis H37Rv after 3 to 7 days by rapid direct susceptibility test; format: functional
[7] = tested on: Mycobacterium tuberculosis; assay: Potency index, ratio of isoniazid MIC to test compound MIC for Mycobacterium tuberculosis H37Rv; format: functional
[8] = tested on: Mycobacterium tuberculosis; assay: Potency index, ratio of gatifloxacin MIC to test compound MIC for Mycobacterium tuberculosis H37Rv; format: functional
[9] = tested on: Human immunodeficiency virus 1; assay: Antiviral activity against HIV1 3B infected in human MT4 cells after 5 days by spectrophotometric method; format: functional, organism-based; details: Human immunodeficiency virus 1, 3B, MT4, 120 h

Compound	MIC (Pseudomonas aeruginosa)	MIC (Shigella flexneri)	MIC (Vibrio cholerae)	MIC [3]	MIC (Escherichia coli)	MIC (Salmonella typhi)	MIC (Klebsiella pneumoniae)	MIC (Citrobacter freundii)	MIC (Staphylococcus aureus)	also measured
O=C(O)c1cn(C2CC2)c2cc(N3CCNCC3)c(F)cc2c1=O [CIPROFLOXACIN]	0.1 to 2.5 µg/mL (≈ 0.302 to 7.54 µM)	0.1 to 2.5 µg/mL (≈ 0.302 to 7.54 µM)	0.1 to 2.5 µg/mL (≈ 0.302 to 7.54 µM)	0.1 to 2.5 µg/mL (≈ 0.302 to 7.54 µM)	0.1 to 2.5 µg/mL (≈ 0.302 to 7.54 µM)	0.1 to 2.5 µg/mL (≈ 0.302 to 7.54 µM)	0.1 to 2.5 µg/mL (≈ 0.302 to 7.54 µM)	0.1 to 2.5 µg/mL (≈ 0.302 to 7.54 µM)	0.1 to 2.5 µg/mL (≈ 0.302 to 7.54 µM)	Activity [1]: 4.64 log10CFU; MIC [2]: 2 µg/mL (≈ 6.04 µM); Activity [4]: 6.82 log10CFU
COc1cc(Cc2cnc(/N=C3\C(=O)N(CN4C(C)CN(c5c(F)c(N)c6c(=O)c(C(=O)O)cn(C7CC7)c6c5F)CC4C)c4ccccc43)nc2N)cc(OC)c1OC (stereo unspecified)	–	–	–	–	–	–	–	–	–	IC50 (HeLa): 18.3 to 50 µg/mL (≈ 22.2 to 60.7 µM); IC50 (A549): 18.3 to 50 µg/mL (≈ 22.2 to 60.7 µM); IC50 (SW480): 18.3 to 50 µg/mL (≈ 22.2 to 60.7 µM); IC50 (HepG2): 18.3 to 50 µg/mL (≈ 22.2 to 60.7 µM)
Cc1ccc2c(c1)C(=O)C(=O)N2CN1CCN(c2cc3c(cc2F)c(=O)c(C(=O)O)cn3C2CC2)CC1	0.1 to 0.5 µg/mL (≈ 0.198 to 0.991 µM)	0.1 to 0.5 µg/mL (≈ 0.198 to 0.991 µM)	0.1 to 0.5 µg/mL (≈ 0.198 to 0.991 µM)	0.1 to 0.5 µg/mL (≈ 0.198 to 0.991 µM)	0.1 to 0.5 µg/mL (≈ 0.198 to 0.991 µM)	0.1 to 0.5 µg/mL (≈ 0.198 to 0.991 µM)	0.1 to 0.5 µg/mL (≈ 0.198 to 0.991 µM)	0.1 to 0.5 µg/mL (≈ 0.198 to 0.991 µM)	0.1 to 0.5 µg/mL (≈ 0.198 to 0.991 µM)	–
CO/N=C1/C(=O)N(CCn2cc(CN3CCC[C@H]4CN(c5c(F)cc6c(=O)c(C(=O)O)cn(C7CC7)c6c5OC)C[C@H]43)nn2)c2ccc(Br)cc21	–	–	–	–	–	–	–	–	–	Ratio [5]: 4; MIC [6]: 0.1 µg/mL (≈ 0.131 µM)
CO/N=C1/C(=O)N(CCn2cc(CN3CCC[C@H]4CN(c5c(F)cc6c(=O)c(C(=O)O)cn(C7CC7)c6c5OC)C[C@H]43)nn2)c2ccccc21	–	–	–	–	–	–	–	–	–	Ratio [5]: 256; Ratio [7]: >1024; MIC [6]: 0.1 µg/mL (≈ 0.146 µM)
CO/N=C1/C(=O)N(CCCN2CCN(c3c(F)cc4c(=O)c(C(=O)O)cn(C5CC5)c4c3OC)CC2C)c2ccc(F)cc21 (stereo unspecified)	–	–	–	–	–	–	–	–	–	Ratio [5]: 2; Ratio [8]: 2; MIC [6]: 0.25 µg/mL (≈ 0.41 µM)
CCn1cc(C(=O)O)c(=O)c2cc(F)c(N3CCN(CN4C(=O)C(=O)c5ccccc54)C(C)C3)c(F)c21 (stereo unspecified)	0.25 to 2.5 µg/mL (≈ 0.49 to 4.9 µM)	0.25 to 2.5 µg/mL (≈ 0.49 to 4.9 µM)	0.25 to 2.5 µg/mL (≈ 0.49 to 4.9 µM)	0.25 to 2.5 µg/mL (≈ 0.49 to 4.9 µM)	0.25 to 2.5 µg/mL (≈ 0.49 to 4.9 µM)	0.25 to 2.5 µg/mL (≈ 0.49 to 4.9 µM)	0.25 to 2.5 µg/mL (≈ 0.49 to 4.9 µM)	0.25 to 2.5 µg/mL (≈ 0.49 to 4.9 µM)	0.25 to 2.5 µg/mL (≈ 0.49 to 4.9 µM)	–
CCn1cc(C(=O)O)c(=O)c2cc(F)c(N3CCNC(C)C3)c(F)c21 (stereo unspecified) [LOMEFLOXACIN]	0.1 to 2.5 µg/mL (≈ 0.285 to 7.12 µM)	0.1 to 2.5 µg/mL (≈ 0.285 to 7.12 µM)	0.1 to 2.5 µg/mL (≈ 0.285 to 7.12 µM)	0.1 to 2.5 µg/mL (≈ 0.285 to 7.12 µM)	0.1 to 2.5 µg/mL (≈ 0.285 to 7.12 µM)	0.1 to 2.5 µg/mL (≈ 0.285 to 7.12 µM)	0.1 to 2.5 µg/mL (≈ 0.285 to 7.12 µM)	0.1 to 2.5 µg/mL (≈ 0.285 to 7.12 µM)	0.1 to 2.5 µg/mL (≈ 0.285 to 7.12 µM)	–
CCn1cc(C(=O)O)c(=O)c2cc(F)c(N3CCN(CN4C(=O)/C(=N\NC(N)=S)c5cc(Cl)ccc54)CC3)cc21	–	–	–	–	–	–	–	–	–	EC50 [9]: 11.3 µg/mL (≈ 19.3 µM)
CCn1cc(C(=O)O)c(=O)c2cc(F)c(N3CCN(CN4C(=O)/C(=N\NC(N)=S)c5cc(Br)ccc54)CC3)cc21	–	–	–	–	–	–	–	–	–	EC50 [9]: 13.9 µg/mL (≈ 22 µM)
COc1cc(Cc2cnc(/N=C3\C(=O)N(CN4CCN(c5cc6c(cc5F)c(=O)c(C(=O)O)cn6C5CC5)CC4)c4ccc(F)cc43)nc2N)cc(OC)c1OC	–	–	–	–	–	–	–	–	–	Activity [1]: 4.08 log10CFU; MIC [2]: 0.78 µg/mL (≈ 0.999 µM); Activity [4]: 5.26 log10CFU

— ChEMBL document CHEMBL4382234, “Fluoroquinolone-isatin hybrids and their biological activities” (Eur J Med Chem, 2019)
